Test results taken from patent publication US7649012B2, “Compounds, pharmaceutical compositions containing same, and methods of use for same” (FASgen, Inc., priority 2002, dated 2010).
In brackets after ≈: the same amount, converted by molar mass. Read-outs that look alike come from different tables or passages of the source.

Experiments:
[1] = system: MCF-7 human breast cancer cells; assay: [14C]acetate incorporation into total lipids; assay type: cell-based; details: for IC50: Homo sapiens, MCF7, [14C]acetate incorporation into lipids; for 14C(IC50): [14C]acetate incorporation into lipids
Description: This assay measures the incorporation of [^14C]acetate into total lipids and is a measure of fatty acid synthesis pathway activity in vitro. It is utilized to measure inhibition of fatty acid synthesis in vitro.
MCF-7 human breast cancer cells cultured as above, are plated at 5×10^4 cells per well in 24-well plates. […] DMSO is added to triplicate wells for a vehicle control. C75 is run at 5 and 10 μg/ml in triplicate as positive controls. After 4 hours of incubation, 0.25 μCi of [^14C]acetate (10 μl volume) is added to each well.
After 2 hours of additional incubation, medium is aspirated from the wells and 800 μl of chloroform:methanol (2:1) and 700 μl of 4 mM MgCl2 is added to each well. Contents of each well are transferred to 1.5 Eppendorf tubes, and spun at full-speed for 2 minutes in a high-speed Eppendorf Microcentrifuge 5415D. After removal of the aqueous (upper) layer, an additional 700 μl of chloroform:methanol (2:1) and 500 μl of 4 mM MgCl2 are added to each tube and then centrifuged for 1 minutes as above. The aqueous layer is removed with a Pasteur pipette and discarded. An additional 400 μl of chloroform:methanol (2:1) and 200 μl of 4 mM MgCl2 are added to each tube, then centrifuged and aqueous layer is discarded. The lower (organic) phase is transferred into a scintillation vial and dried at 40° C. under N2 gas. Once dried, 3 ml of scintillant (APB #NBC5104) is added and vials are counted for ^14C. The Beckman Scintillation counter calculates the average cpm values for triplicates.
The IC50 for the compounds is defined as the concentration of drug leading to a 50% reduction in [^14C]acetate incorporation into lipids compared to controls. […] The average cpm values are computed by the Beckman scintillation counter (Model LS6500) for each compound concentration. Computation of linear regression, best-fit line, r^2, and 95% confidence intervals are calculated using Prism Version 3.0 (Graph Pad Software).

[2] = system: MCF-7 human breast cancer cells; assay: Crystal violet cell growth assay; assay type: cell-based; details: MCF7, MCF-7, 72 hours, read-out: Cr. Violet(IC50)
Description: The crystal violet assay measure cell growth but not cytotoxicity. This assay employs crystal violet staining of fixed cells in 96-well plates with subsequent solubilization and measurement of OD490 on a spectrophotometer. The OD490 corresponds to cell growth per unit time measured. Cells are treated with the compounds of interest or vehicle controls and IC50 for each compound is computed.
To measure the cytotoxicity of specific compounds against cancer cells, 5×10^4 MCF-7 human breast cancer cells, obtained from the American Type Culture Collection are plated per well in 24 well plates in DMEM medium with 10% fetal bovine serum, penicillin, and streptomycin. Following overnight culture at 37° C. and 5% CO2, the compounds to be tested, dissolved in DMSO, are added to the wells in 1 μl volume at the following concentrations: 50, 40, 30, 20, and 10 μg/ml in triplicate. Additional concentrations are tested if required. 1 μl of DMSO is added to triplicate wells are the vehicle control. C75 is run at 10, and 5 μg/ml in triplicate as positive controls.
After 72 hours of incubation, cells are stained with 0.5 ml of Crystal Violet stain (0.5% in 25% methanol) in each well. After 10 minutes, wells are rinsed, air dried, and then solubilized with 0.5 ml 10% sodium dodecylsulfate with shaking for 2 hours.

[3] = Weight loss screen in Balb/C mice; assay type: in vivo; details: for change in vivo at 60 mg/kg / change in vivo at 30 mg/kg: Mus musculus, read-out: Weight Loss; for change in vivo at 60 mg/kg: ip; for Deaths in weight loss screen: 60 mg/kg
Description: Balb/C mice (Jackson Labs) are utilized for the initial weight loss screening. Animals are housed in temperature and 12 hour day/night cycle rooms and fed mouse chow and water ad lib. Three mice are utilized for each compound tested with vehicle controls in triplicate per experiment. For the experiments, mice are housed separately for each compound tested three mice to a cage. […] Mice are observed and weighed daily; average weights and standard errors are computed with Excel (Microsoft). The experiment continues until treated animals reach their pretreatment weights. […]

[4] = system: OV; assay: XTT cytotoxicity assay, cells marked (OV); assay type: cell-based
[5] = system: Enterococcus faecalis (ATCC # 29212); assay: Broth microdilution MIC; assay type: cell-based; details: for MIC: Enterococcus faecalis, ATCC29212
Summary of the method: (§1)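 Run in Mueller Hinton Broth and Trypticase Soy Broth, with inoculum at 0.5 McFarland diluted 1:10 and compounds in DMSO at 25 to 0.78 ug/ml (final well concentrations not given) in duplicate. OD600 read after 24 h at 37° C; MIC derived by linear regression.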

[6] = system: Pseudomonas aeruginosa (ATCC # 27853); assay: Broth microdilution MIC; assay type: cell-based; details: for PSAE/MH(MIC): Mueller Hinton Broth; for PSAE/Tsoy(MIC): Trypticase Soy Broth
Summary of the method: as §1

[7] = 48 h, 60 mg/kg intraperitoneally, day2
[8] = 96 h, 60 mg/kg intraperitoneally, day4
[9] = 24 h, 60 mg/kg intraperitoneally, day1
[10] = Mueller Hinton Broth, read-out: EF/MH(MIC)
[11] = Trypticase Soy Broth, read-out: EF/Tsoy(MIC)

In the case of `CCCCCCCCC1(C)SC(=O)C=C1OCC(=O)NNCc1ccc(Cl)cc1` (stereo not drawn), the IC50 [1] is reported as 10.5 ± 2.6 µg/mL (≈ 23.9 µM), the IC50 [2] is reported as under 5 µg/mL and the change in vivo at 60 mg/kg [3, 7] is reported as 1.4%. It also gave an IC50 [4] of 16 µg/mL (≈ 36.4 µM).
Compound `CCCCCCCCC1(C)SC(=O)C=C1OCC(=O)NNC(C)=O` (stereo not drawn) has an IC50 [1] of 11.5 µg/mL (≈ 32.3 µM), an IC50 [2] of 28.7 µg/mL (≈ 80.5 µM) and a change in vivo at 60 mg/kg [3, 8] of 5.9%. It also gave an IC50 [4] of 16 µg/mL (≈ 44.9 µM).
`CCCCCCCCC1(C)SC(=O)C=C1OCC(=O)NNC(=O)c1ccco1` (stereo not drawn) showed an IC50 [1] of 16.4 µg/mL (≈ 40.1 µM), an IC50 [2] of 26.3 µg/mL (≈ 64.4 µM) and a change in vivo at 60 mg/kg [3, 8] of 6.3%. The IC50 [4] was 21.3 µg/mL (≈ 52.1 µM).
For `CCCCCCCCC1(C)SC(=O)C=C1OCc1ccccc1` (stereo not drawn), the “14C(IC50)” value [1] was “Neg(stim)”, the IC50 [2] was 9.5 µg/mL (≈ 28.6 µM) and the change in vivo at 60 mg/kg ([3]; 72 h, 60 mg/kg intraperitoneally, day3) was 5.2%. The IC50 [4] was 27.8 µg/mL (≈ 83.6 µM).
With `CCCCCCCC[C@@]1(C)SC(=O)C=C1OC(=O)OC` (racemic) the IC50 [1] was 10.7 µg/mL (≈ 35.6 µM), the IC50 [2] was 41.4 ± 14.1 µg/mL (≈ 138 µM) and the change in vivo at 60 mg/kg [3, 9] was 7.65%. For the same compound, the MIC [5, 10] was 73 µg/mL (≈ 243 µM), the MIC [5, 11] was 65 µg/mL (≈ 216 µM) and the “PSAE/MH(MIC)” value [6] was “Neg”. The “PSAE/Tsoy(MIC)” value [6] was “Neg”.
`CCCCCCCCC1(C)SC(=O)C=C1O` (stereo not drawn) showed an IC50 [1] of 12.6 ± 4.4 µg/mL (≈ 52 µM), an IC50 [2] of 28.7 µg/mL (≈ 118 µM) and a change in vivo at 30 mg/kg ([3]; 72 h) of 4.8%. The MIC [5, 10] was 16.9 µg/mL (≈ 69.7 µM), the MIC [5, 11] was 3.3 µg/mL (≈ 13.6 µM) and the “PSAE/MH(MIC)” value [6] was “Neg”. For the same compound, the “PSAE/Tsoy(MIC)” value [6] was “Neg”.
For `C#CCOC1CC(=O)S[C@]1(C)CCCCCC` (mixture of isomers), the IC50 [1] was 21.9 ± 1.5 µg/mL, the IC50 [2] was 12.1 ± 1.5 µg/mL and the “Deaths in weight loss screen” value ([3]; day2, three mice) was 3 of 3 dead. For the same compound, the change in vivo at 30 mg/kg ([3]; 72 h, 30 mg/kg, day3) was 5.9%, the MIC [5, 11] was 83 µg/mL and the “EF/MH(MIC)” value ([5]; Mueller Hinton Broth) was “Neg”. For the same compound, the “PSAE/MH(MIC)” value [6] was “Neg” and the “PSAE/Tsoy(MIC)” value [6] was “Neg”.
With `CCCCCC[C@@]1(C)SC(=O)C=C1OCC(=O)NCC(=O)O` (racemic) the IC50 [1] was 6.6 µg/mL (≈ 20 µM), the IC50 [2] was over 50 µg/mL and the change in vivo at 60 mg/kg [3, 7] was 3.5%. The MIC [5, 10] was 121 µg/mL (≈ 367 µM), the MIC [5, 11] was 173 µg/mL (≈ 525 µM) and the “PSAE/MH(MIC)” value [6] was “Neg”. The “PSAE/Tsoy(MIC)” value [6] was “Neg”.
In the case of `C=CCOC1=CC(=O)S[C@]1(C)CCCCCCCC` (racemic), the “14C(IC50)” value [1] is reported as “Neg”, the IC50 [2] is reported as 11 µg/mL (≈ 38.9 µM) and the “Deaths in weight loss screen” value ([3]; day3, three mice) is reported as 3 of 3 dead. For the same compound, the change in vivo at 30 mg/kg ([3]; 48 h, 30 mg/kg, day2) was 4.7%, the MIC [5, 10] was 238 µg/mL (≈ 843 µM) and the MIC [5, 11] was 238 µg/mL (≈ 843 µM). The “PSAE/MH(MIC)” value [6] was “Neg” and the “PSAE/Tsoy(MIC)” value [6] was “Neg”.
`C/C=C/C(C)=C/C1(C)SC(=O)C=C1O` (stereo not drawn) gave an IC50 [1] of 17.3 µg/mL (≈ 82.3 µM), an IC50 [2] of over 50 µg/mL and a change in vivo at 60 mg/kg [3, 9] of 4.1%. For the same compound, the “EF/MH(MIC)” value ([5]; Mueller Hinton Broth) was “Neg”, the “EF/Tsoy(MIC)” value ([5]; Trypticase Soy Broth) was “Neg” and the “PSAE/MH(MIC)” value [6] was “Neg”. The “PSAE/Tsoy(MIC)” value [6] was “Neg”.
In the case of `CCCC/C=C/C=C/C1(C)SC(=O)C=C1O` (stereo not drawn), the IC50 [1] is reported as 25.7 µg/mL (≈ 108 µM), the IC50 [2] is reported as 43.9 ± 4.8 µg/mL (≈ 184 µM) and the change in vivo at 60 mg/kg ([3]; 144 h) is reported as 11%. For the same compound, the MIC [5, 10] was 78 µg/mL (≈ 327 µM), the MIC [5, 11] was 42 µg/mL (≈ 176 µM) and the “PSAE/MH(MIC)” value [6] was “Neg”. The “PSAE/Tsoy(MIC)” value [6] was “Neg”.
In the case of `CCCCCCCC[C@@]1(C)SC(=O)C=C1OCC(=O)OCC` (racemic), the IC50 [1] is reported as 10.8 ± 5.8 µg/mL (≈ 32.9 µM), the IC50 [2] is reported as 17.9 ± 5.1 µg/mL (≈ 54.5 µM) and the change in vivo at 30 mg/kg ([3]; 24 h) is reported as 4.5%. For the same compound, the change in vivo at 60 mg/kg [3, 9] was 1.8%, the MIC [5, 10] was 86 µg/mL (≈ 262 µM) and the “EF/Tsoy(MIC)” value ([5]; Trypticase Soy Broth) was “Neg”. For the same compound, the “PSAE/MH(MIC)” value [6] was “Neg” and the “PSAE/Tsoy(MIC)” value [6] was “Neg”.
